Experimental data: patent US7744921B2, “Liposome loading with metal ions” (Celator Pharmaceuticals, Inc., priority 2001, dated 2010)
Blank lines part the entries; values can stand above or below the molecule they belong to.

Tests used:
[1] = Effect of buffer composition on precipitation of metal ion (20 mM histidine, triethanolamine to pH 7.4, visual inspection); type: physicochemical; set-up: key: ppt: represents that the formation of a precipitate occurred after the addition of triethanolamine within a time course of 10 minutes; no ppt: represents that the formation of a precipitate did not occur after addition of triethanolamine to achieve a pH of 7.4 and within a time course of 10 minutes; conditions: pH 7.4, 10 minutes
[2] = Precipitation of MnSO4 in pH 7.4 HEPES buffer (metal compatible solution); type: physicochemical; conditions: 300 mM solution of MnSO4 in pH 7.4 HEPES buffer
Method: Preferably, the metal solution should be clear and soluble, free of aggregation, precipitation or flocculation for at least about 4 hours. By way of example, a 300 mM solution of MnSO4 in pH 7.4 HEPES buffer as described in Cheung, et al. [supra] is not a metal compatible solution as it produces an obvious brown precipitate of Mn(OH)2 comprising approximately 6-7 molar % of the manganese added to the solution.
An alternative preferred method of determining whether a metal solution is metal compatible is by centrifugation (e.g. 100 ml sample at 1000 rpm for 10 minutes) to collect any precipitate, measuring the amount of precipitate collected and determining the proportion of the metal added to the original solution present in the precipitate. The amount of metal in the precipitate should not exceed about 1 molar % of the amount of metal added to the original solution.

[3] = Drug-to-lipid ratio of passively encapsulated first drug before/after loading of second drug; conditions: DSPC/DSPG (80:20)
Method: Prior to measurement of absorbance, liposomes were solubilized in a solution containing Triton X-100.
Samples were extruded and external buffers exchanged into SHE, pH 7.4, using a hand-held tangential flow dialysis column. […] Atomic absorption spectrometry (AA) was used to determine carboplatin concentrations and absorbance at 370 nm was measured to determine irinotecan concentrations.

[4] = Active (metal-based, citrate or ionophore) loading of drug into liposomes; spin column, drug-to-lipid ratio; type: physicochemical; conditions: for sequential loading of two drugs into a single liposome (in words): 300 mM CuSO4, 60° C., irinotecan 0.2:1 then doxorubicin 0.15:1 mole ratio
[5] = as above; type: physicochemical; conditions: for loading efficiency: 300 mM MnSO4, 37° C.
Method: Lipids were dissolved in chloroform solution and subsequently dried under a stream of nitrogen gas and placed in a vacuum pump to remove solvent. Unless otherwise specified, trace levels of radioactive lipid 3H-CHE were added to quantify lipid during the formulation process. The resulting lipid film was placed under high vacuum for a minimum of 2 hours. The lipid film was hydrated in the solution indicated to form multilamellar vesicles (MLVs). The resulting preparation was extruded 10 times through stacked polycarbonate filters with an extrusion apparatus (Lipex Biomembranes, Vancouver, BC) to achieve a mean liposome size between 80 and 150 nm. All constituent lipids of liposomes are reported in mole %.
At various time points after initiation of drug loading, aliquots were removed and passed through a Sephadex G-50 spin column to separate free from encapsulated drug. To a specified volume of eluant, Triton X-100 or N-ocyl beta-D-glucopyranoside (OGP) was added to solubilize the liposomes. Following addition of detergent, the mixture was heated to the cloud point of the detergent and allowed to cool to room temperature before measurement of the absorbance or fluorescence. Drug concentrations were calculated by comparison to a standard curve.
In order to determine whether copper loading of irinotecan in the absence of a pH gradient could occur using a cholesterol-free formulation, DSPC/DSPG (80:20 mole ratio) liposomes containing copper(II) gluconate were prepared with an external and internal pH of 7.4. […] The lipid films were hydrated in 100 mM Cu(II) gluconate adjusted to pH 7.4 with triethanolamine (TEA) and extruded at 70° C. […] Irinotecan was added to the liposome preparation at a 0.1:1 drug-to-lipid mole ratio and incubated at 50° C. The extent of drug loading was determined as described in the methods by measuring absorbance at 370 nm and lipid levels were determined by liquid scintillation counting.
Loading of daunorubicin into DSPC/DSPG (90:10 mole ratio) liposomes containing encapsulated CuSO4 buffered to pH 7.4 was also investigated. […] A solution of 150 mM CuSO4, 20 mM histidine (adjusted to pH 7.4 using TEA), was employed as the hydration medium and MLVs were extruded at 70° C. […] Daunorubicin was loaded at a 0.1:1 drug/lipid weight ratio. A drug-to-lipid ratio at various time points during loading was determined by measuring absorbance at 480 nm after solubilization in detergent to quantify daunorubicin as described; lipid levels were determined by liquid scintillation counting.
The liposomes were prepared as described in the methods by hydrating lipid films in a solution of 100 mM copper(II) gluconate adjusted to pH 7.4 with TEA. Liposomes were extruded at 65° C. and the external buffer of the liposomes was exchanged to SHE, pH 7.4 by tangential flow dialysis. Liposomes were incubated with irinotecan at a 0.1:1 drug-to-lipid weight ratio at 50° C. and the extent of drug loading was determined as described by measuring absorbance at 370 nm after solubilization by detergent.
In addition to copper loading, loading of drug using MnSO4 containing liposomes in the absence of a pH gradient was also investigated. […] Lipids films were prepared as described and hydrated in 300 mM MnSO4 buffered to pH 7.4 with 20 mM imidazole (initial pH was adjusted to 7.4 with concentrated HCl) and extrusion was carried out at 70° C. The samples were run down a Sephadex G-50 column to exchange the exterior buffer with SHE, pH 7.4.

[6] = 150 mM metal in 20 mM histidine
[7] = 300 mM metal in 20 mM histidine
[8] = DPPC/DSPE-PEG2000 (95:5), pH gradient citrate loading (300 mM citrate, pH 4.0), 37° C.

Molecule: [Cd] [Cadmium]
precipitation after addition of triethanolamine: Chloride [1, 6]: ppt
precipitation after addition of triethanolamine: Sulfate [1, 6]: no ppt
precipitation after addition of triethanolamine: Chloride [1, 7]: ppt
precipitation after addition of triethanolamine: Sulfate [1, 7]: no ppt

Molecule: [Mn+2] [Manganese]
precipitation after addition of triethanolamine: Chloride [1, 6]: ppt
precipitation after addition of triethanolamine: Sulfate [1, 6]: no ppt
precipitation after addition of triethanolamine: Chloride [1, 7]: ppt
precipitation after addition of triethanolamine: Sulfate [1, 7]: no ppt

Molecule: O=S(=O)([O-])[O-].[Mn+2] [MnSO4 in pH 7.4 HEPES buffer, MnSO4]
proportion of added manganese in Mn(OH)2 precipitate [2]: 6-7 molar %

Molecule: N.N.O=C([O-])C1(C(=O)[O-])CCC1.[Pt+2] [carboplatin]
carboplatin drug-to-lipid weight ratio after loading of irinotecan ([3]; 150 mM CuSO4 pH 7.4, irinotecan loaded at 60° C.): 0.025
initial carboplatin drug-to-lipid weight ratio ([3]; 150 mM CuSO4 pH 7.4, passively encapsulated): 0.030

Molecule: Cobalt
precipitation after addition of triethanolamine: Chloride [1, 6]: no ppt
precipitation after addition of triethanolamine: Sulfate [1, 6]: no ppt
precipitation after addition of triethanolamine: Chloride [1, 7]: no ppt
precipitation after addition of triethanolamine: Sulfate [1, 7]: no ppt

Molecule: Copper
precipitation after addition of triethanolamine: Chloride [1, 6]: no ppt
precipitation after addition of triethanolamine: Sulfate [1, 6]: no ppt
precipitation after addition of triethanolamine: Chloride [1, 7]: no ppt
precipitation after addition of triethanolamine: Nitrate [1, 7]: no ppt
precipitation after addition of triethanolamine: Sulfate [1, 7]: no ppt

Molecule: Zinc
precipitation after addition of triethanolamine: Chloride [1, 6]: ppt
precipitation after addition of triethanolamine: Sulfate [1, 6]: ppt
precipitation after addition of triethanolamine: Chloride [1, 7]: ppt
precipitation after addition of triethanolamine: Sulfate [1, 7]: ppt

Second part, led by results:

accumulation relative to MnSO4 and citrate loading (in words) ([4]; DMPC/Chol (55:45), 300 mM MnCl2, external SHE pH 7.5, 60° C., weight ratio 0.2:1): less complete
time to essentially complete loading ([4]; DMPC/Chol (55:45), 300 mM MnSO4, external SHE pH 7.5, 60° C., weight ratio 0.2:1): ≤ 5 min
loading efficiency ([4]; DPPC/DSPE-PEG2000 (95:5), 300 mM MnSO4, 37° C., initial drug/lipid weight ratio 0.3:1): > 80%
maximum drug-to-lipid weight ratio achieved [4, 8]: < 0.075
sequential loading of two drugs into a single liposome (in words) ([4]; DSPC/Chol (55:45)): efficiently loaded
time to essentially complete loading ([5]; DMPC/Chol (55:45), 300 mM citrate pH 3.5, external HBS, 60° C., weight ratio 0.2:1): ≤ 5 min
loading efficiency ([5]; DPPC/DSPE-PEG2000 (95:5), initial drug/lipid weight ratio 0.1:1): > 95%
loading efficiency ([5]; DPPC/DSPE-PEG2000 (95:5), initial drug/lipid weight ratio 0.2:1): > 90%
added drug encapsulated ([5]; DSPC/Chol (55:45), 300 mM CoCl2, SHE pH 7.5, weight ratio 0.1:1, 60° C., within 10 minutes): > 90%
leakage during vincristine encapsulation (in words) ([5]; DSPC/Chol (55:45), 300 mM MnSO4, doxorubicin preloaded at 0.2:1 wt/wt, vincristine loading at 50° C.): no significant leakage
Molecule: COc1cccc2c1C(=O)c1c(O)c3c(c(O)c1C2=O)C[C@@](O)(C(=O)CO)C[C@@H]3O[C@H]1C[C@H](N)[C@H](O)[C@H](C)O1 [doxorubicin]
encapsulation efficiency as doxorubicin/lipid weight ratio increased from 0.1 to 0.3 (in words) [5, 8]: substantial reduction in encapsulation efficiency

drug accumulation ([4]; DSPC/DSPE-PEG2000 (95:5), 300 mM CuSO4, SHE pH 7.4, weight ratio 0.2:1, 60° C., within 5 minutes): > 95%
Molecule: COc1cccc2c1C(=O)c1c(O)c3c(c(O)c1C2=O)C[C@@](O)(C(=O)CO)C[C@@H]3O[C@H]1C[C@H](N)[C@@H](O)[C@H](C)O1 [epirubicin]
loading (in words) ([5]; DSPC/DSPE-PEG2000 (95:5), 300 mM MnSO4, 20 mM imidazole pH 7.4 internal, SHE pH 7.4 external, no pH gradient, 60° C., weight ratio 0.2:1): efficient encapsulation of drug occurred at each time point measured

sequential loading of two drugs into a single liposome (in words) ([4]; DSPC/Chol (55:45)): efficiently loaded
encapsulation ([4]; DSPC/Chol (55:45), 300 mM CuSO4, SHE pH 7.5, drug-to-lipid mole ratio 0.2:1, 60° C., loaded first): approximately 100%
loading ([4]; DSPC/DSPE-PEG2000 (95:5), 300 mM CuSO4, SHE pH 7.4, 60° C., weight ratio 0.1:1, within 5 minutes): greater than 95%
loading (in words) ([4]; DSPC/DSPG (80:20), 150 mM CuSO4 pH 7.4, exchanged into solution not containing a chelating agent, 37, 50 and 60° C., weight ratio 0.1:1): reduced rate
loading (in words) ([4]; DSPC/DSPG (80:20), 150 mM CuSO4 pH 7.4, passed through Chelex-100 column, 37, 50 and 60° C., weight ratio 0.1:1): enhanced
loading (in words) ([4]; FUDR-containing DSPC/Chol/DSPG (70:10:20), 100 mM Cu(II) gluconate, 220 mM TEA pH 7.4, external HBS or sucrose/HEPES pH 7.4, 50° C., mole ratio 0.1:1): efficiently loads
loading (in words) ([4]; carboplatin-containing DSPC/DSPG (80:20), 150 mM CuSO4 pH 7.4, SHE pH 7.4 external, 60° C., weight ratio 0.1:1): loads to a high degree
time to almost complete loading ([5]; DPPC/Chol (55:45), 100 mM Cu(II) gluconate pH 7.4 internal, SHE pH 7.4 external, no pH gradient, 50° C., weight ratio 0.1:1): about 60 minutes
loading complete ([5]; DSPC/DSPE-PEG2000 (95:5), 300 mM MnSO4, SHE pH 7.4, 60° C., weight ratio 0.1:1, 30-minute time point): 10%
time to essentially complete loading ([5]; DSPC/DSPG (80:20) liposomes, 100 mM Cu(II) gluconate pH 7.4 (TEA) internal, SHE pH 7.4 external, no pH gradient, 50° C., drug-to-lipid mole ratio 0.1:1): ≤ 5 min
loading after chelation column versus after exchange into EDTA-containing solution (in words) ([5]; DSPC/DSPG (80:20), 150 mM copper gluconate pH 7.4, 37, 50 and 60° C., weight ratio 0.1:1): comparable
Molecule: CCc1c2c(nc3ccc(OC(=O)N4CCC(N5CCCCC5)CC4)cc13)-c1cc3c(c(=O)n1C2)COC(=O)[C@]3(O)CC [irinotecan]
loading (in words) ([4]; FUDR-containing DSPC/DSPG (85:15), 100 mM Cu(II) gluconate, 220 mM TEA pH 7.4, external 300 mM sucrose, 20 mM HEPES pH 7.4, 50° C., mole ratio 0.1:1): efficient loading of the drug occurred throughout the time course of the experiment

loading complete ([4]; DSPC/Chol (55:45), 300 mM CuSO4, SHE pH 7.4, weight ratio 0.1:1, 37° C., within 30 minutes): > 95%
Molecule: CC[C@@]1(O)C(=O)OCc2c1cc1n(c2=O)Cc2cc3c(CN(C)C)c(O)ccc3nc2-1 [topotecan]

incubation time to near maximum encapsulation ([5]; DSPC/Chol (55:45), 300 mM MnSO4, preloaded with doxorubicin, A23187 ionophore-mediated loading, 50° C., weight ratio 0.05:1): 40 min
Molecule: CC[C@]1(O)C[C@H]2CN(CCc3c([nH]c4ccccc34)[C@@](C(=O)OC)(c3cc4c(cc3OC)N(C=O)[C@H]3[C@@](O)(C(=O)OC)[C@H](OC(C)=O)[C@]5(CC)C=CCN6CC[C@]43[C@@H]65)C2)C1 [vincristine]
